The source of these data is patent US7183269B2, “Synergistic compositions for the selective control of tumor tissue” (priority 1997, dated 2007).

Assay [1] concerns RT112 tumor cells (bladder carcinoma). The assay is described as follows: [3H]-TdR incorporation assay (proliferation). The assay is classed as cell-based, human. The note with it: in dependence of extracellular pH, FIG. 4. The source says:
The anticancer activity of salicylate combinations can also be examined by in vitro experiments with tumor cell lines. As a relevant criterion of toxic effects on cancer cells the proliferation rate can be considered. The proliferation rate effected by salicylate combinatioins can be measured in dependence of the extracellular pH-milieu. (Details for cell cultures, see Materials & Methods below.)
The effect of salicylate combinations on the proliferation of RT112 tumor cells is quantitated by the measurement of incorporated tritiated thymidine ([^3H]-TdR) into the cellular DNA of the cancer cells by liquid scintillation counting (LSC). (Method details, see Material & Methods below.)
(§1) The human bladder tumor cell line. RT112 or the human chronic myeloid leukemia cell line K562 were purchased from DKFZ Tumorzell—und datenbank (Institut für experimentelle Pathologie, Heidelberg, FRG) or DSM (Deutsche Sammlung von Mikroorganismen und Zellkulturen GmbH, Braunschweig, FRG), respectively. The cells were cultured in HEPES-buffered RPMI 1640 (SIGMA, Deisenhofen, FRG) supplemented with 2 mM L-glutamine (BIOCHROM, Berlin, FRG), 1% NEAE (BIOCHROM), 10% heat-inactivated fetal calf serum (BIOCHROM), 100 U/ml penicillin and 50 μg/ml streptomycin (BIOCHROM) at 37° C. and 5% CO2. Only mycoplasma-free cell cultures were used; this was frequently tested using a specific detection kit (BOEHRINGER MANNHEIM, Mannheim, FRG).
The influence of cytotoxic molecules on the proliferation of RT112 tumor cells was quantitated by the measurement of the incorporated tritiated thymidine ([^3H]-TdR) into the cellular DNA of the tumor cells by liquid scintillation counting (LSC). In brief, RT112 cells were harvested, washed twice and resuspended in culture media (2.5×10^5/ml). 100 μl/well of the RT112 cell suspension were seeded into 96 well microtiter plates (BECTON DICKINSON) and incubated over night at 37° C. and 5% CO2. The supernatant was replaced by 90 μl pH-adjusted culture medium (pH 6.0–7.4) and 10 μl of the solution of preferred substances or 100 μl/well pH-adjusted culture medium alone (control). The cells were incubated for various time periods at 37° C. and 5% CO2. Thereafter, cells were washed twice, reincubated in fresh pH-adjusted culture medium and pulsed for 24 h by the addition of 23.125 kBq [^3H]TdR/well (925 kBq/ml; AMERSHAM, Braunschweig, FRG). After freezing and thawing, radioactive DNA of the cultures were transferred to glass fiber filters with an automatic cell harvester (PHARMACIA). The incorporated radioactivity was measured in a liquid scintillation counter (PHARMACIA).

For another assay, the system named is RT112. In words: Cell Death Detection ELISA (apoptosis kit) with RT112 as a function of pH. The assay is classed as cell-based, human. The procedure: The measurements were carried out using a “Cell Death Detection ELISA” kit, Cat. No. 1774 425 commercially available from Boehringer (Mannheim). The process instructions are additionally supplied by Boehringer.
The OD value corresponds to the cell death.
The results of the experiments are summarized in FIGS. 1 to 3, which correspond to Tables 1 to 3. In the figures, the cell death is recorded in a ELISA (apoptosis kit) with RT112 as a function of the pH. That is to say the data on the Y axis of the figures is a measure of the cell death; the pH of the cells is indicated on the X axis. FIG. 1 and FIG. 2 show experiments in which individual compounds were employed. […] It stands out that at a pH of between 6.5 and 7.0 the compositions according to the invention cause a cell death which is preferably in the vicinity of or above the CAM value, which virtually corresponds to a complete destruction of the tumor tissue.
The apoptosis-inducing substance CAM used in the experiments is camptothecin (CAM value). In the experiments, positive control means that instead of the apoptotic cancer cells induced by the substances a histone-DNA complex with known detection sensitivity is employed for detection, i.e. an artificial apoptosis product is provided. In the experiments, negative control means that the same detection procedure is carried out, but without addition of substances or substance mixtures.
as §1
Background: In an ELISA, binding on a coated surface is turned into a signal by an enzyme label.

[2] abbreviates: Table 2, measurement after 35 minutes, 15 mM, initial pH 6.0.
Setting [3] is: Table 2, measurement after 35 minutes, 15 mM, initial pH 6.5.
Setting [4] is: Table 2, measurement after 35 minutes, 15 mM, initial pH 7.0.
Setting [5] is: Table 2, measurement after 35 minutes, 15 mM, initial pH 7.4.
The mark [6] stands for this setting: Table 2, measurement after 35 minutes, 10 mM, initial pH 6.0.
Setting [7] is: Table 2, measurement after 35 minutes, 10 mM, initial pH 6.5.
[8] abbreviates: Table 2, measurement after 35 minutes, 10 mM, initial pH 7.0.
Where [9] appears, read: Table 2, measurement after 35 minutes, 10 mM, initial pH 7.4.

Molecules are shown by their SMILES.

As for `Nc1ccc(C(=O)O)c(O)c1` [Substance 58a, 2-hydroxy-4-aminobenzoic acid], the “effect on the proliferation rate” value in assay [1] is recorded as “no effect or minor effect”. Moreover, the “OD (405–490 nm)” value came to 0.320 in the assay on RT112 (setting [2]), 0.282 with RT112 (setting [3]), 0.574 in the assay on RT112 (setting [4]) and 1.835 in the assay on RT112 (setting [5]).

On to `CC(=O)Oc1ccccc1C(=O)O` [Substance 121, acetylsalicylic acid (2-acetoxybenzoic acid)], for which the “effect on the proliferation rate” value in assay [1] is “no effect or minor effect”. For the same compound, the “OD (405–490 nm)” value with RT112 (setting [6]) was determined as 1.282; in the assay on RT112 (setting [7]), 0.163; with RT112 (setting [8]), 0.413; with RT112 (setting [9]), 1.508.

With `O=C(O)c1c(O)cc(O)cc1O` [DHSA, 2,4,6-trihydroxybenzoic acid], the “effect on the proliferation rate” value in assay [1] was “no effect or minor effect”.

As to `COc1ccc(C(=O)O)c(OC)c1` [Substance 188, 2,4-dimethoxybenzoic acid], the “OD (405–490 nm)” value in the assay on RT112 (setting [2]) was found to be 0.256; with RT112 (setting [3]) it was 0.309; with RT112 (setting [4]) it was 0.502; with RT112 (setting [5]), 1.854.

As for `O=C(O)c1cc(-c2ccc(F)cc2F)ccc1O` [Diflu, 5-(2,4-difluoro-phenyl)salicylic acid], the “effect on the proliferation rate” value in assay [1] is listed as “no effect or minor effect”.

Take `CC[C@@]1(O)C(=O)OCc2c1cc1n(c2=O)Cc2cc3ccccc3nc2-1` [CAM, camptothecin]: the “OD (405–490 nm)” value with RT112 (Table 1, measurement after 35 minutes, 800 ng/ml, initial pH 6.0) worked out at 0.818; with RT112 (Table 1, measurement after 35 minutes, 800 ng/ml, initial pH 6.5), 3.037; in the assay on RT112 (Table 1, measurement after 35 minutes, 800 ng/ml, initial pH 7.0) it was 2.725; in the assay with RT112 (Table 1, measurement after 35 minutes, 800 ng/ml, initial pH 7.4), 2.416; with RT112 (Table 2, measurement after 35 minutes, 160 ng/ml, initial pH 6.0), 0.344; in the assay on RT112 (Table 2, measurement after 35 minutes, 160 ng/ml, initial pH 6.5), 0.711. The “OD (405–490 nm)” value is 1.220 in the assay with RT112 (Table 2, measurement after 35 minutes, 160 ng/ml, initial pH 7.0); 1.923 in the assay on RT112 (Table 2, measurement after 35 minutes, 160 ng/ml, initial pH 7.4); 1.681 in the assay with RT112 (Table 3, measurement after 20 minutes, 800 ng/ml, initial pH 6.0); 1.708 in the assay on RT112 (Table 3, measurement after 20 minutes, 800 ng/ml, initial pH 6.5); 1.791 in the assay on RT112 (Table 3, measurement after 20 minutes, 800 ng/ml, initial pH 7.0); 2.217 in the assay on RT112 (Table 3, measurement after 20 minutes, 800 ng/ml, initial pH 7.4).

In the case of `CC(=O)Oc1ccc(C(=O)O)c(OC(C)=O)c1` [Substance 132, 2,4-diacetoxybenzoic acid], the “OD (405–490 nm)” value amounted to 2.856 with RT112 (setting [6]); 0.183 with RT112 (setting [7]); 0.088 with RT112 (setting [8]); 0.502 in the assay on RT112 (setting [9]); 0.407 in the assay on RT112 (Table 3, measurement after 20 minutes, 5 mM, initial pH 6.0); 0.371 in the assay on RT112 (Table 3, measurement after 20 minutes, 5 mM, initial pH 6.5). Further, the “OD (405–490 nm)” value was 0.422 in the assay with RT112 (Table 3, measurement after 20 minutes, 5 mM, initial pH 7.0) and 0.916 with RT112 (Table 3, measurement after 20 minutes, 5 mM, initial pH 7.4).

`O=C(O)c1c(O)cccc1O` [Substance 136, 2,6-dihydroxybenzoic acid]: in assay [1], the “effect on the proliferation rate” value was “no effect or minor effect”. The “OD (405–490 nm)” value in the assay on RT112 (Table 1, measurement after 35 minutes, 5 mM, initial pH 6.0) came to 0.187; in the assay with RT112 (Table 1, measurement after 35 minutes, 5 mM, initial pH 6.5), 0.918; in the assay on RT112 (Table 1, measurement after 35 minutes, 5 mM, initial pH 7.0) it was 0.321; in the assay with RT112 (Table 1, measurement after 35 minutes, 5 mM, initial pH 7.4), 0.382; in the assay with RT112 (Table 1, measurement after 35 minutes, 7 mM, initial pH 6.0), 0.221; in the assay with RT112 (Table 1, measurement after 35 minutes, 7 mM, initial pH 6.5) it was 1.287. Further, the “OD (405–490 nm)” value is recorded as 0.524 in the assay on RT112 (Table 1, measurement after 35 minutes, 7 mM, initial pH 7.0) and 0.816 with RT112 (Table 1, measurement after 35 minutes, 7 mM, initial pH 7.4).
